Source: patent US6500837B2, “Fused ring system containing indole as M4 selective aza-anthracene muscarinic receptor antagonists” (Warner-Lambert Company, priority 2000, dated 2002)
Values joined by “and” are separate entries in the source; they are usually repeats but may differ in a detail not shown here. Identical values can stand only once.

Key:
Conditions in all cases: displacement of [3H]-NMS, membranes from transfected CHO cells; separate determinations in one cell
[1] = target: human muscarinic receptor subtype M3 (Hm3) (Homo sapiens, UniProt P20309); test: [3H]-NMS receptor binding in CHO cell membranes, Hm3
Experimental: (§1) The compounds of Formula I have shown potent binding affinity for muscarinic receptors and are thus useful as muscarinicing antagonists. […] The compounds are evaluated in standard assays used to measure muscarinic receptor binding. Specifically, the compounds are evaluated for their binding affinity toward five human muscarinic receptor subtypes (M1-M5) by the method of Dorje et al., J. Pharm. Exp. Ther., 1991;256:727-733, incorporated herein by reference. The binding is determined by measuring the displacement of [^3H]-NMS binding using membranes from transfected Chinese hamster ovary (CHO) cells. All compounds are tested two to four times with duplicate tubes (SEM is ≦10% in all cases).

[2] = target: T1, human muscarinic receptor subtype M1 (Hm1) (Homo sapiens, UniProt P11229); test: [3H]-NMS receptor binding in CHO cell membranes, Hm1
T1 sequence (P11229 1-460): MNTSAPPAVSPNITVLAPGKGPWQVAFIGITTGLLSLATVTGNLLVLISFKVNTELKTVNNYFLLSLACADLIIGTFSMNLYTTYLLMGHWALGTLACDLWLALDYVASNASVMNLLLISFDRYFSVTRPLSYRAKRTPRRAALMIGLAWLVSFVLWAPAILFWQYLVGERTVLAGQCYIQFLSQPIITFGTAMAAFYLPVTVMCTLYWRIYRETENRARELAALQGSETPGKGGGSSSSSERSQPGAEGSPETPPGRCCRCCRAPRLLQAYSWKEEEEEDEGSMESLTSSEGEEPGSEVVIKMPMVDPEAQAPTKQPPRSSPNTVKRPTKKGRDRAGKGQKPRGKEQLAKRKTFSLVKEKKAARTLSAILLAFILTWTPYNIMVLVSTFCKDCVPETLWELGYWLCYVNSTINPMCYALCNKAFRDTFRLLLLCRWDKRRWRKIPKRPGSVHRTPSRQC
Experimental: as §1

[3] = target: T2, human muscarinic receptor subtype M5 (Hm5) (Homo sapiens, UniProt P08912); test: [3H]-NMS receptor binding in CHO cell membranes, Hm5
T2 sequence (P08912 1-532): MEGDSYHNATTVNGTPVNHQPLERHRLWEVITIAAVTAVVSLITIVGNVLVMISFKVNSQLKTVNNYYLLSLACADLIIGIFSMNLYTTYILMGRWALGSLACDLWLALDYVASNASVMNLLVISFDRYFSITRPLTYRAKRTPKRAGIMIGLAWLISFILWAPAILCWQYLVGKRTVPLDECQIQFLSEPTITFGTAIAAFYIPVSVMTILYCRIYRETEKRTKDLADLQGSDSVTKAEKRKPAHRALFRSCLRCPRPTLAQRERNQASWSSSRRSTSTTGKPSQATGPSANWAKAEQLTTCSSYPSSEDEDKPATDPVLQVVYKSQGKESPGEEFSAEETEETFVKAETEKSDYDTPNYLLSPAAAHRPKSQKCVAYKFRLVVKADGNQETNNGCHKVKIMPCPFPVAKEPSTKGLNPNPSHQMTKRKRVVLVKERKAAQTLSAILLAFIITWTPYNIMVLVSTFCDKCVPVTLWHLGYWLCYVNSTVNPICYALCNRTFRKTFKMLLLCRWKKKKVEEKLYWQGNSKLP
Experimental: as §1

[4] = target: T3, human muscarinic receptor subtype M2 (Hm2) (Homo sapiens, UniProt P08172); test: [3H]-NMS receptor binding in CHO cell membranes, Hm2
T3 sequence (P08172 1-466): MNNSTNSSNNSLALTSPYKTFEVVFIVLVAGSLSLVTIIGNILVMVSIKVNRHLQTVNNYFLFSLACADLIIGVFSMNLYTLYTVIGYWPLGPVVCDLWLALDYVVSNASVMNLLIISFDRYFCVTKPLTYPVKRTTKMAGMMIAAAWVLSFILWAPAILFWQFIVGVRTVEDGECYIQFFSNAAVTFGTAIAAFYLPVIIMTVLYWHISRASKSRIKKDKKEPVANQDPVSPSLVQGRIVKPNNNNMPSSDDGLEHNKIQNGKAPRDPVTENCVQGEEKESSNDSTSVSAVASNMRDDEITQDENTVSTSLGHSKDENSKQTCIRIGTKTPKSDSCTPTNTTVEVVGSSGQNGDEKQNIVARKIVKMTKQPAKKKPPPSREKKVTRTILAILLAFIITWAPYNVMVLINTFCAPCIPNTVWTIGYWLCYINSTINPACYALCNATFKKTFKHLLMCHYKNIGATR
Experimental: as §1

[5] = target: T4, human muscarinic receptor subtype M4 (Hm4) (Homo sapiens, UniProt P08173); test: [3H]-NMS receptor binding in CHO cell membranes, Hm4
T4 sequence (P08173 1-479): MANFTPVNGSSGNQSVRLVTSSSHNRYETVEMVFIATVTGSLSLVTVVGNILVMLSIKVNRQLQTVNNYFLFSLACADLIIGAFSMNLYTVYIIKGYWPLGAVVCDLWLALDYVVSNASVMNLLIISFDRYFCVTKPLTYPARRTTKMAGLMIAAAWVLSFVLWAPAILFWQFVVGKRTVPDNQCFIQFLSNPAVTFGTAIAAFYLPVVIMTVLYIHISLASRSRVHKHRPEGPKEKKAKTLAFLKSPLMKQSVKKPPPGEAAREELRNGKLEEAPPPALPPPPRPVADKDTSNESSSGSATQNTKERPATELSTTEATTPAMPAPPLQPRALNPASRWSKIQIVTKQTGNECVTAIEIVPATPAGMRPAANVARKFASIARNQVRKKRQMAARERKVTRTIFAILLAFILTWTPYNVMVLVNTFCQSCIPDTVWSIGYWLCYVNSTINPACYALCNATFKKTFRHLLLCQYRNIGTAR
Experimental: as §1

human muscarinic receptor subtype M3 (Hm3), sequence (P20309 whole entry): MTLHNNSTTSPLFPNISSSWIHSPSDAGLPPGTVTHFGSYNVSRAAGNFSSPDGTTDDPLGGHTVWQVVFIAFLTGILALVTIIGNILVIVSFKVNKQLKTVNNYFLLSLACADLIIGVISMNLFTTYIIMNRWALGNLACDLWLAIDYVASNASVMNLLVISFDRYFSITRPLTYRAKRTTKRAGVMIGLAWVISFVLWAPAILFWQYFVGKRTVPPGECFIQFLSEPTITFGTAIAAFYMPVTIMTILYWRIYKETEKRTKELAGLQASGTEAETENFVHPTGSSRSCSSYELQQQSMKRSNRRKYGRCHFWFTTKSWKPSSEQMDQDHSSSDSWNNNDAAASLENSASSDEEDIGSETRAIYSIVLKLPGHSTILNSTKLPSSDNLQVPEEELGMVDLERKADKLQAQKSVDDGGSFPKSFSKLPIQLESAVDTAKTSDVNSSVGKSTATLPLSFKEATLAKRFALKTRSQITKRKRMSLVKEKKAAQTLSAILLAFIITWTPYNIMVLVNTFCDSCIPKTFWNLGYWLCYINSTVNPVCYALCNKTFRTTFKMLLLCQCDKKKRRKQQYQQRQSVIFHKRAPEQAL

IC50 [1] | IC50 [2] | IC50 [3] | IC50 [4] | IC50 [5] | Structure (SMILES)
> 10 µM and 20 µM | 0.4 µM | 5 µM and 4 µM | 3 µM | 3 µM and 0.6 µM | CCOC(=O)c1c(C)[nH]c2cc(Br)c3c(c12)CN1CCc2cc(OC)ccc2C1C3 (stereo not shown) [Compound 1, 5-Bromo-9-methoxy-2-methyl-6,11,12,13-tetrahydro-3H,6aH-3,12a-diaza-benzo[a]cyclopent[h]anthracene-1-carboxylic acid ethyl ester]
> 10 µM | 0.5 µM and 0.4 µM | 10 µM and 15 µM | 0.8 µM and 4 µM | 2 µM and 3 µM | CCCc1[nH]c2cc(Br)c3c(c2c1C(=O)OCC)CN1CCc2cc(OC)ccc2C1C3 (stereo not shown) [Compound 2, 5-Bromo-9-methoxy-2-propyl-6,11,12,13-tetrahydro-3H6aH-3,12a-diaza-benzo[a]cyclopent[h]anthracene-1-carboxylic acid ethyl ester]
> 10 µM and 5 µM | > 10 µM and 25 µM | 10 µM and 9 µM | 25 µM | > 10 µM and 20 µM | CCOC(=O)c1c(C)[nH]c2ccc3c(c12)CN1CCc2cc(OC)ccc2C1C3 (stereo not shown) [Compound 3, 9-methoxy-2-methyl-6,11,12,13-tetrahydro-3H,6aH-3,12a-diaza-benzo[a]cyclopent[h]anthracene-1-carboxylic acid ethyl ester]
> 10 µM | > 10 µM |  | 20 µM and 15 µM | > 10 µM | CCCc1[nH]c2ccc3c(c2c1C(=O)OCC)CN1CCc2cc(OC)ccc2C1C3 (stereo not shown) [Compound 4, 9-Methoxy-2-propyl-6,11,12,13-tetrahydro-3H6aH-3,12a-diaza-benzo[a]cyclopent[h]anthracene-1-carboxylic acid ethyl ester]
